Drawing on US11066369B2, “N-(pyridin-2-yl)pyridine-sulfonamide derivatives and their use in the treatment of disease” (Novartis AG, priority 2016, dated 2021), this text covers Emax and EC50 for 27 molecules.

pEC50: −log10 of the molar value. Where a name gives a salt, the structure may show the parent alone. Read-outs that look alike come from different tables or passages of the source.

For this assay, the target named is T1, horseradish peroxidase (HRP) tagged delF508-CFTR (Homo sapiens, UniProt P13569, DEL508-508).
T1 construct: expressed in transfected cells
T1 sequence (P13569 with tags, fused parts or gaps DEL508-508): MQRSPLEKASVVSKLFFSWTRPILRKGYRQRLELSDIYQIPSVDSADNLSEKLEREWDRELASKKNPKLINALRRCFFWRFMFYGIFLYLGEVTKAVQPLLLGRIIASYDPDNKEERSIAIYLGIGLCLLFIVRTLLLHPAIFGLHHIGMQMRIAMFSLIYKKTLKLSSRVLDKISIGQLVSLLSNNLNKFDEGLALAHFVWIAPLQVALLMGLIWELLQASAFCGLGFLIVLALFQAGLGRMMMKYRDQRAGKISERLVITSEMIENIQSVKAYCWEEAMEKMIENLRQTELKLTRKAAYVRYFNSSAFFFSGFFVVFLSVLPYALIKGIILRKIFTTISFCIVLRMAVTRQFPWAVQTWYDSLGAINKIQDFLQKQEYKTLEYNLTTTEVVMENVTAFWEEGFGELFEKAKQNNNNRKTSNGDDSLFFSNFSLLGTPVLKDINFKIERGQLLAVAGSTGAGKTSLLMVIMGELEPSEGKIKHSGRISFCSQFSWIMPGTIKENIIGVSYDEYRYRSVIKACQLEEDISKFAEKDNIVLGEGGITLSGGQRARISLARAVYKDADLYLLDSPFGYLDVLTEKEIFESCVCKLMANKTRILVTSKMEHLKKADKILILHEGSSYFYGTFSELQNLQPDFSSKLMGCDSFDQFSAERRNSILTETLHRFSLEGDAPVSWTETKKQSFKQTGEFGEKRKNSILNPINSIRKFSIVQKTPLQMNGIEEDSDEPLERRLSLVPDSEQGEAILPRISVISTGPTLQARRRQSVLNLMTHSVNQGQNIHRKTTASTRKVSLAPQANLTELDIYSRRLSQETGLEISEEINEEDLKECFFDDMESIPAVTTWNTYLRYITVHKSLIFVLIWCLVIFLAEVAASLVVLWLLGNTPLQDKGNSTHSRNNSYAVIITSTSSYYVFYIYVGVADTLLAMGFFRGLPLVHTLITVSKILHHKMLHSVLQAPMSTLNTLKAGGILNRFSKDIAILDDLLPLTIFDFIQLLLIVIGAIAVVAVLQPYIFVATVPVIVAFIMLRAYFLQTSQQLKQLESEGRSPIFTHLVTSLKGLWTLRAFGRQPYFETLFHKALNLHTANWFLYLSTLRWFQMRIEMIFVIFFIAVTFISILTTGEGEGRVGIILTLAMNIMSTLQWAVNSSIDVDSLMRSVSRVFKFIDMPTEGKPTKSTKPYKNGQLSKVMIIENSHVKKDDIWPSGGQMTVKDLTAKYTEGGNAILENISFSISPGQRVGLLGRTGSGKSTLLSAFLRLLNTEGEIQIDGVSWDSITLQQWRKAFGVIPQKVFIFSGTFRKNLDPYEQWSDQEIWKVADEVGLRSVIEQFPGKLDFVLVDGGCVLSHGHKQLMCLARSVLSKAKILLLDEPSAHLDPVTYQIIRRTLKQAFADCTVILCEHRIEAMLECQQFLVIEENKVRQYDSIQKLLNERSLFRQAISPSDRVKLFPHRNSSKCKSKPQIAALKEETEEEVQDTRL
The assay can be described thus: Measurement of delF508-CFTR-HRP surface expression in CFBE41o- cells.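 For DelF508-CFTR-HRP Amax %: percent efficacy relative to reference corrector lumacaftor.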 Type of assay: cell-based. The settings on record: for Emax: read-out: DelF508-CFTR-HRP Amax %. The method in brief:
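CFBE41o- bronchial epithelial cells stably expressing delF508-CFTR with HRP in the fourth extracellular loop; expression induced 48h with 500 ng/mL doxycycline, then compounds added (top 10 μM, 10-point 3-fold series, ≤0.5% DMSO) for 24h at 37° C. Surface HRP measured by luminescence with cell-impermeant substrate; EC50 from logistic fit of triplicates, plate-normalized to lowest concentration; efficacy also relative to a reference corrector.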

Setting [1] is: delF508-CFTR-HRP surface expression, CFBE41o- cells.
Where [2] appears, read: delF508-CFTR-HRP surface expression, CFBE41o- cells, read-out: DelF508-CFTR-HRP EC50.
Where [3] appears, read: CFBE41o- cells, mean of at least two replicates, read-out: DelF508-CFTR-HRP EC50.
Where [4] appears, read: CFBE41o- cells, surface expression Amax.

Consider `Cc1ccccc1-c1nc(NS(=O)(=O)c2cccc(N3CCN[C@H](C(=O)O)C3)n2)ccc1C(F)(F)F` [Example 335, (2S)-4-(6-{[6-(2-methylphenyl)-5-(trifluoromethyl)pyridin-2-yl]sulfamoyl}pyridin-2-yl)piperazine-2-carboxylic Acid], for which the Emax under setting [1] is 71.3%. Moreover, the negative logarithm of the EC50 (pEC50) (usually −log10 of the EC50, conventionally taken in molar units) under setting [2] is 5.50.

With `CC(C)Oc1ccc(Cl)cc1-c1nc(NS(=O)(=O)c2cccc(N3CCC(C)(C(=O)O)CC3)n2)ccc1C(F)(F)F` [Example 427, 1-(6-(N-(6-(5-chloro-2-isopropoxyphenyl)-5-(trifluoromethyl)pyridin-2-yl)sulfamoyl)pyridin-2-yl)-4-methylpiperidine-4-carboxylic Acid], under setting [3], the pEC50 was 6.20. Besides, the Emax under setting [4] turned out to be 282%.

Consider `Cc1c(F)cccc1-c1nc(NS(=O)(=O)c2cccc(N3CCCC4(CC4C(=O)O)C3)n2)ccc1C(F)(F)F` (stereo not drawn) [Example 440, 5-(6-(N-(6-(3-fluoro-2-methylphenyl)-5-(trifluoromethyl)pyridin-2-yl)sulfamoyl)pyridin-2-yl)-5-azaspiro[2.5]octane-1-carboxylic Acid], for which the pEC50 under setting [3] is 5.60. In addition, under setting [4], the Emax was 274%.

Take `CC1(C(=O)O)CCCN(c2cccc(S(=O)(=O)Nc3ccc(C(F)(F)F)c(-c4ccccc4C4CC4)n3)n2)C1` (stereo not drawn) [Example 402, 1-(6-(N-(6-(2-cyclopropylphenyl)-5-(trifluoromethyl)pyridin-2-yl)sulfamoyl)pyridin-2-yl)-3-methylpiperidine-3-carboxylic Acid]: the pEC50 under setting [3] is 6.11. The Emax under setting [4] was 729%.

For `Cc1cccc(C)c1-c1nc(NS(=O)(=O)c2ccc(N)nc2)ccc1Cl` [Example 47, 6-amino-N-(5-chloro-6-(2,6-dimethylphenyl)pyridin-2-yl)pyridine-3-sulfonamide], under setting [1], the Emax turned out to be 335%. The pEC50 under setting [2] was 5.86.

Turning to `Cc1ccccc1-c1nc(NS(=O)(=O)c2cccc(N[C@@H]3CCC[C@H](C(=O)O)C3)n2)ccc1C(F)(F)F` (relative stereo) [Example 461, (1,3-cis)-3-((6-(N-(6-(o-tolyl)-5-(trifluoromethyl)pyridin-2-yl)sulfamoyl)pyridin-2-yl)amino)cyclohexanecarboxylic Acid], the negative logarithm of the EC50 (pEC50) under setting [3] was 5.71. Besides, under setting [4], the Emax came to 392%.

`CCCc1ccccc1-c1nc(NS(=O)(=O)c2cccc(N3CCC(C)(C(=O)O)CC3)n2)ccc1C(F)(F)F` [Example 398, 4-methyl-1-(6-(N-(6-(2-propylphenyl)-5-(trifluoromethyl)pyridin-2-yl)sulfamoyl)pyridin-2-yl)piperidine-4-carboxylic Acid]: under setting [3], the pEC50 was 6.21. Moreover, the Emax under setting [4] was 711%.

`Cc1ccccc1-c1nc(NS(=O)(=O)c2cccc(N3C4CCC3CC(C(=O)O)C4)n2)ccc1C(F)(F)F` (stereo not drawn) [Example 346, 8-(6-{[6-(2-methylphenyl)-5-(trifluoromethyl)pyridin-2-yl]sulfamoyl}pyridin-2-yl)-8-azabicyclo[3.2.1]octane-3-carboxylic Acid] gave a pEC50 of 5.76. Besides, the Emax under setting [1] was 297%.

`Cc1ccccc1-c1nc(NS(=O)(=O)c2cccc(N3C[C@H](C(=O)O)CC[C@@H]3C)n2)ccc1C(F)(F)F` [Example 464]: the pEC50 under setting [3] is 5.61. Besides, under setting [4], the Emax came out at 816%.

Take `CC(C)c1ccccc1-c1nc(NS(=O)(=O)c2cccc(N3CCCC(C)(C(=O)O)C3)n2)ccc1C(F)(F)F` (stereo not drawn) [Example 377, 1-(6-(N-(6-(2-isopropylphenyl)-5-(trifluoromethyl)pyridin-2-yl)sulfamoyl)pyridin-2-yl)-3-methylpiperidine-3-carboxylic Acid]: the negative-log EC50 (pEC50) under setting [2] was 6.13.

With `CC(C)COc1ccccc1-c1nc(NS(=O)(=O)c2cccc(N3CCC(C)(C(=O)O)CC3)n2)ccc1Cl` [Example 397, 1-(6-(N-(5-chloro-6-(2-isobutoxyphenyl)pyridin-2-yl)sulfamoyl)pyridin-2-yl)-4-methylpiperidine-4-carboxylic Acid], the negative-log EC50 (pEC50) under setting [3] is 5.89. The Emax under setting [4] stood at 303%.

Take `Nc1cccc(S(=O)(=O)Nc2ccc(Cl)c(-c3c(F)ccc(F)c3F)n2)n1` [Example 78, 6-amino-N-(5-chloro-6-(2,3,6-trifluorophenyl)pyridin-2-yl)pyridine-2-sulfonamide]: the Emax under setting [1] is 141%. Further, the pEC50 under setting [2] is 5.56.

In the case of `Cc1ccc(F)cc1-c1nc(NS(=O)(=O)c2cccc(N3CCC[C@](C)(C(=O)O)C3)n2)ccc1C(F)(F)F` [Example 435, (3S)-1-(6-{[6-(5-fluoro-2-methylphenyl)-5-(trifluoromethyl)pyridin-2-yl]sulfamoyl}pyridin-2-yl)-3-methylpiperidine-3-carboxylic Acid], the pEC50 under setting [3] is 5.64. Also, the Emax under setting [4] is 714%.

As for `[2H]C([2H])([2H])c1ccccc1-c1nc(NS(=O)(=O)c2cccc(N)n2)ccc1Cl` [Example 20, 6-amino-N-(5-chloro-6-(2-(methyl-d3)phenyl)pyridin-2-yl)pyridine-2-sulfonamide], under setting [1], the Emax worked out at 499%. In addition, under setting [2], the pEC50 was 5.75.

In the case of `Cc1cccc(C)c1-c1nc(NS(=O)(=O)c2cccc(N)n2)cc(C(F)(F)F)c1Cl` [Example 8, 6-amino-N-(5-chloro-6-(2,6-dimethylphenyl)-4-(trifluoromethyl)pyridin-2-yl)pyridine-2-sulfonamide], the Emax under setting [1] came out at 608%. Moreover, the pEC50 under setting [2] was 5.87.

As to `O=S(=O)(Nc1ccc(C(F)(F)F)c(-c2ccc(F)cc2Cl)n1)c1cccc(N2CCNCC2)n1` [Example 153, N-(6-(2-Chloro-4-Fluorophenyl)-5-(Trifluoromethyl)Pyridin-2-yl)-6-(Piperazin-1-yl)Pyridine-2-Sulfonamide Hydrochloride], the Emax under setting [1] turned out to be 159%. For the same molecule, the pEC50 under setting [2] is 5.42.

Turning to `Cc1ccccc1-c1nc(NS(=O)(=O)c2cccc(N)n2)ccc1C(F)(F)F` [Example 15, 6-amino-N-(6-(o-tolyl)-5-(trifluoromethyl)pyridin-2-yl)pyridine-2-sulfonamide], under setting [1], the Emax is 520%. Moreover, under setting [2], the pEC50 is 5.64.

Turning to `Cc1cc(C#N)ccc1-c1nc(NS(=O)(=O)c2cccc(N)n2)ccc1Cl` [Example 91, 6-amino-N-(5-chloro-6-(4-cyano-2-methylphenyl)pyridin-2-yl)pyridine-2-sulfonamide], the Emax under setting [1] came out at 41.7%. Also, the negative-log EC50 (pEC50) under setting [2] was 5.66.

Take `Cc1cccc(C)c1-c1nc(NS(=O)(=O)c2cccc(N3CCn4ccnc4C3)n2)ccc1Cl` [Example 198, N-(5-chloro-6-(2,6-dimethylphenyl)pyridin-2-yl)-6-(5,6-dihydroimidazo[1,2-a]pyrazin-7(8H)-yl)pyridine-2-sulfonamide]: the Emax under setting [1] came to 692%. In addition, the pEC50 under setting [2] is 5.71.

Turning to `Cc1ccccc1-c1nc(NS(=O)(=O)c2cccc(N)n2)ccc1C` [Example 75, 6-amino-N-(5-methyl-6-(o-tolyl)pyridin-2-yl)pyridine-2-sulfonamide], under setting [1], the Emax is 158%. Also, the pEC50 under setting [2] is 5.55.

`Cc1ccccc1-c1nc(NS(=O)(=O)c2cccc(N[C@@H]3CCNC[C@H]3O)n2)ccc1C(F)(F)F` [Example 114, 6-(((3R,4R)-3-hydroxypiperidin-4-yl)amino)-N-(6-(o-tolyl)-5-(trifluoromethyl)pyridin-2-yl)pyridine-2-sulfonamide Hydrochloride]: under setting [1], the Emax was found to be 66.2%. In addition, the negative logarithm of the EC50 (pEC50) under setting [2] is 5.44.

With `COc1cc(NS(=O)(=O)c2cccc(N3CC(C)(O)C3)n2)nc(-c2c(C)cccc2C)c1` [Example 206, N-(6-(2,6-dimethylphenyl)-4-methoxypyridin-2-yl)-6-(3-hydroxy-3-methylazetidin-1-yl)pyridine-2-sulfonamide], the Emax under setting [1] turned out to be 95.9%. Further, the negative-log EC50 (pEC50) under setting [2] was 5.43.

Regarding `Cc1cccc(C)c1-c1nc(NS(=O)(=O)c2cccc(N3CCC[C@@](C)(C(=O)O)C3)n2)ccc1C(F)(F)F` [Example 465, (R)-1-(6-(N-(6-(2,6-dimethylphenyl)-5-(trifluoromethyl)pyridin-2-yl)sulfamoyl)pyridin-2-yl)-3-methylpiperidine-3-carboxylic Acid], the pEC50 under setting [3] was 5.76.

As to `Cc1ccc(NS(=O)(=O)c2cccc(N)n2)nc1-c1ccccc1Cl` [Example 77, 6-amino-N-(6-(2-chlorophenyl)-5-methylpyridin-2-yl)pyridine-2-sulfonamide Hydrochloride], under setting [1], the Emax was 152%. The negative logarithm of the EC50 (pEC50) under setting [2] is 5.59.

On to `Cc1ccccc1-c1nc(NS(=O)(=O)c2cccc(N3CCC[C@@](C)(C(=O)O)C3)n2)ccc1C1CC1` [Example 411, (R)-1-(6-(N-(5-cyclopropyl-6-(o-tolyl)pyridin-2-yl)sulfamoyl)pyridin-2-yl)-3-methylpiperidine-3-carboxylic Acid], for which the negative logarithm of the EC50 (pEC50) under setting [3] was 5.86. The Emax under setting [4] turned out to be 400%.

Turning to `Nc1cccc(S(=O)(=O)Nc2ccc(Cl)c(-c3ccccc3OC(F)(F)F)n2)n1` [Example 59, 6-amino-N-(5-chloro-6-(2-(trifluoromethoxy)phenyl)pyridin-2-yl)pyridine-2-sulfonamide], the Emax under setting [1] worked out at 258%. The negative-log EC50 (pEC50) under setting [2] is 5.96.

With `COc1ccc(Cl)c(-c2nc(NS(=O)(=O)c3cccc(N4CCC[C@@](C)(C(=O)O)C4)n3)ccc2C(F)(F)F)c1` [Example 424, (R)-1-(6-(N-(6-(2-chloro-5-methoxyphenyl)-5-(trifluoromethyl)pyridin-2-yl)sulfamoyl)pyridin-2-yl)-3-methylpiperidine-3-carboxylic Acid], the negative-log EC50 (pEC50) under setting [3] is 5.69.
